Values joined by “and” are separate entries in the source; they are usually repeats but may differ in a detail not shown here. Equal entries are not always repeated.
Tested on: C57BL/6 mice
Assay: Indirect calorimetry and exercise endurance under stepwise treadmill running
Type: in vivo, mouse
Settings: for Fat oxodation, sum over interval / Gluocse oxdation, sum over interval / Fat oxodation / Gluocse oxdation: individual mice 1-7
Description: The mice were acclimatized to the treadmill by allowing them to run at 10 m min^−1 for 10 min on the day before the test. On the day of the test, the mice received oral administration of 30 mg kg^−1 of DS20060511 or vehicle 15 min before they were made to run. The treadmill was started at a velocity of 10 m min^−1, with the speed increased stepwise by 2 m min^−1 every 3 min, to assess the exercise endurance capacity as described previously. Measurements of the oxygen consumption (VO2) and exhaled carbon dioxide (VCO2) under treadmill running were conducted with the ARCO-2000 magnetic-type mass spectrometric calorimeter (ARCO System, Kashiwa, Japan) connected to the treadmill chamber (MB-2000, ARCO System). The RER was calculated as the VCO2/VO2 ratio and the substrate utilization rates were calculated using Frayn’s formula[51]: rate of glucose oxidation = 4.585VCO2 − 3.226VO2; rate of fat oxidation = 1.695VO2 − 1.701VCO2. The exercise endurance capacity under treadmill running was determined by measuring the time from the start to the time until the mice ceased to run because of exhaustion, which was defined as remaining on the shocker plate for more than 10 sec. Immediately after the exercise, the blood glucose and lactate levels were measured using Glutest Every and Lactate Pro2 (ARKRAY, Kyoto, Japan), respectively, in blood samples collected from the tail vein.

[1] = 30 mg kg−1 po vs vehicle, treadmill running
[2] = DS20060511 30 mg/kg, 2 min, individual mice 1-7, Fig. 5a, 30 mg/kg

## COc1ccc2c(C)c(C(=O)O)ccc2c1C1C2=C(CC(C)(C)CC2=O)OC2=C1C(=O)CC(C)(C)C2 [DS20060511]
30 mg kg−1 po vs vehicle
  blood lactate levels after exercise: comparable between the two groups
30 mg kg−1 po vs vehicle, stepwise treadmill
  exercise endurance capacity: comparable between the two groups
[1]
  estimated glucose oxidation: significantly higher
  fat oxidation: significantly lower
  respiratory exchange ratio (RER): relatively higher
30 mg kg−1 po, after treadmill running
  blood glucose levels after exercise: decreased significantly after exercise
30 mg/kg, 0-10 min
  Fat oxodation, sum over interval: 427.8 mg/min/kg and 293.6 mg/min/kg and 420.7 mg/min/kg and 305.9 mg/min/kg and 318.6 mg/min/kg and 347.3 mg/min/kg and 349.7 mg/min/kg
  Gluocse oxdation, sum over interval: 257.7 mg/min/kg and 558.0 mg/min/kg and 414.2 mg/min/kg and 313.5 mg/min/kg and 385.3 mg/min/kg and 424.4 mg/min/kg and 413.9 mg/min/kg
30 mg/kg, 10-20 min
  Fat oxodation, sum over interval: 395.5 mg/min/kg and 242.6 mg/min/kg and 385.0 mg/min/kg and 272.2 mg/min/kg and 293.7 mg/min/kg and 348.5 mg/min/kg and 252.4 mg/min/kg
  Gluocse oxdation, sum over interval: 391.9 mg/min/kg and 729.7 mg/min/kg and 425.7 mg/min/kg and 359.9 mg/min/kg and 949.6 mg/min/kg and 631.1 mg/min/kg and 663.2 mg/min/kg
30 mg/kg, 20-30 min
  Fat oxodation, sum over interval: 322.9 mg/min/kg and 234.0 mg/min/kg and 346.7 mg/min/kg and 272.4 mg/min/kg and 262.3 mg/min/kg and 313.5 mg/min/kg and 371.5 mg/min/kg
  Gluocse oxdation, sum over interval: 572.7 mg/min/kg and 770.3 mg/min/kg and 804.1 mg/min/kg and 468.4 mg/min/kg and 807.5 mg/min/kg and 860.4 mg/min/kg and 944.3 mg/min/kg
30 mg/kg, 2 min
  Fat oxodation: 49.1 mg/min/kg and 32.5 mg/min/kg and 45.5 mg/min/kg and 29.3 mg/min/kg and 25.5 mg/min/kg and 31.7 mg/min/kg and 38.3 mg/min/kg
  Gluocse oxdation: 22.8 mg/min/kg and 54.5 mg/min/kg and 47.8 mg/min/kg and 35.8 mg/min/kg and 26.2 mg/min/kg and 31.5 mg/min/kg and 33.5 mg/min/kg
30 mg/kg, 3 min
  Fat oxodation: 47.1 mg/min/kg and 30.9 mg/min/kg and 42.8 mg/min/kg and 30.0 mg/min/kg (2×) and 34.1 mg/min/kg and 36.3 mg/min/kg
  Gluocse oxdation: 23.3 mg/min/kg and 55.7 mg/min/kg and 37.4 mg/min/kg and 36.0 mg/min/kg and 29.4 mg/min/kg and 34.4 mg/min/kg and 37.0 mg/min/kg
30 mg/kg, 4 min
  Fat oxodation: 45.2 mg/min/kg and 28.8 mg/min/kg and 42.6 mg/min/kg and 34.0 mg/min/kg and 60.9 mg/min/kg and 33.7 mg/min/kg and 35.2 mg/min/kg
  Gluocse oxdation: 24.4 mg/min/kg and 56.1 mg/min/kg and 36.3 mg/min/kg and 34.1 mg/min/kg and 30.0 mg/min/kg and 35.7 mg/min/kg and 43.6 mg/min/kg
30 mg/kg, 5 min
  Fat oxodation: 42.0 mg/min/kg (2×) and 29.8 mg/min/kg and 30.0 mg/min/kg and 28.6 mg/min/kg and 36.6 mg/min/kg and 31.5 mg/min/kg
  Gluocse oxdation: 25.9 mg/min/kg and 58.5 mg/min/kg and 35.2 mg/min/kg and 29.7 mg/min/kg and 36.7 mg/min/kg and 43.4 mg/min/kg and 40.9 mg/min/kg
30 mg/kg, 6 min
  Fat oxodation: 40.6 mg/min/kg and 28.1 mg/min/kg (2×) and 39.9 mg/min/kg and 29.8 mg/min/kg and 36.7 mg/min/kg and 34.9 mg/min/kg
  Gluocse oxdation: 27.6 mg/min/kg and 62.3 mg/min/kg and 41.7 mg/min/kg and 27.0 mg/min/kg and 29.5 mg/min/kg and 41.2 mg/min/kg and 41.6 mg/min/kg
30 mg/kg, 7 min
  Fat oxodation: 44.6 mg/min/kg and 27.7 mg/min/kg and 40.8 mg/min/kg and 31.0 mg/min/kg and 29.7 mg/min/kg and 36.4 mg/min/kg and 33.0 mg/min/kg
  Gluocse oxdation: 25.8 mg/min/kg and 57.6 mg/min/kg and 41.7 mg/min/kg and 27.6 mg/min/kg and 31.8 mg/min/kg and 41.2 mg/min/kg and 41.5 mg/min/kg
30 mg/kg, 8 min
  Fat oxodation: 40.5 mg/min/kg and 29.5 mg/min/kg and 42.0 mg/min/kg and 36.5 mg/min/kg and 31.2 mg/min/kg and 35.1 mg/min/kg and 53.1 mg/min/kg
  Gluocse oxdation: 25.7 mg/min/kg and 46.1 mg/min/kg and 38.7 mg/min/kg and 30.3 mg/min/kg and 43.2 mg/min/kg and 42.8 mg/min/kg and 44.9 mg/min/kg
30 mg/kg, 9 min
  Fat oxodation: 38.5 mg/min/kg (2×) and 26.8 mg/min/kg and 37.4 mg/min/kg and 31.8 mg/min/kg and 32.4 mg/min/kg and 27.0 mg/min/kg
  Gluocse oxdation: 33.9 mg/min/kg and 53.4 mg/min/kg and 38.5 mg/min/kg and 22.6 mg/min/kg and 54.7 mg/min/kg and 55.4 mg/min/kg and 48.5 mg/min/kg
30 mg/kg, 10 min
  Fat oxodation: 34.8 mg/min/kg and 27.2 mg/min/kg and 41.0 mg/min/kg and 29.8 mg/min/kg and 30.4 mg/min/kg and 34.2 mg/min/kg and 23.3 mg/min/kg
  Gluocse oxdation: 30.0 mg/min/kg and 56.7 mg/min/kg and 39.2 mg/min/kg and 35.9 mg/min/kg and 69.2 mg/min/kg and 58.5 mg/min/kg and 43.5 mg/min/kg
30 mg/kg, 11 min
  Fat oxodation: 31.8 mg/min/kg and 26.7 mg/min/kg and 43.5 mg/min/kg and 30.9 mg/min/kg and 23.0 mg/min/kg and 34.9 mg/min/kg and 24.3 mg/min/kg
  Gluocse oxdation: 26.2 mg/min/kg and 54.7 mg/min/kg and 51.9 mg/min/kg and 29.4 mg/min/kg and 70.2 mg/min/kg and 68.8 mg/min/kg and 48.6 mg/min/kg
30 mg/kg, 12 min
  Fat oxodation: 38.6 mg/min/kg and 27.7 mg/min/kg and 39.9 mg/min/kg and 32.1 mg/min/kg and 28.8 mg/min/kg and 35.4 mg/min/kg and 26.2 mg/min/kg
  Gluocse oxdation: 31.9 mg/min/kg and 64.6 mg/min/kg and 37.7 mg/min/kg and 26.9 mg/min/kg and 70.4 mg/min/kg and 57.6 mg/min/kg and 47.4 mg/min/kg
30 mg/kg, 13 min
  Fat oxodation: 43.1 mg/min/kg and 20.9 mg/min/kg and 41.6 mg/min/kg and 25.9 mg/min/kg and 29.8 mg/min/kg and 35.1 mg/min/kg and 26.2 mg/min/kg
  Gluocse oxdation: 26.0 mg/min/kg and 67.8 mg/min/kg and 36.1 mg/min/kg and 27.0 mg/min/kg and 75.8 mg/min/kg and 55.4 mg/min/kg and 71.1 mg/min/kg
30 mg/kg, 14 min
  Fat oxodation: 40.8 mg/min/kg and 24.1 mg/min/kg and 37.9 mg/min/kg and 28.8 mg/min/kg and 31.7 mg/min/kg and 36.1 mg/min/kg and 24.4 mg/min/kg
  Gluocse oxdation: 35.1 mg/min/kg and 58.5 mg/min/kg and 33.2 mg/min/kg and 25.3 mg/min/kg and 81.8 mg/min/kg and 57.9 mg/min/kg and 62.6 mg/min/kg
30 mg/kg, 15 min
  Fat oxodation: 37.9 mg/min/kg and 23.3 mg/min/kg and 38.6 mg/min/kg and 27.4 mg/min/kg and 30.7 mg/min/kg and 40.7 mg/min/kg and 24.3 mg/min/kg
  Gluocse oxdation: 36.9 mg/min/kg and 60.6 mg/min/kg and 34.7 mg/min/kg and 16.1 mg/min/kg and 95.7 mg/min/kg and 52.2 mg/min/kg and 66.3 mg/min/kg
30 mg/kg, 16 min
  Fat oxodation: 43.4 mg/min/kg and 24.7 mg/min/kg
  Gluocse oxdation: 35.4 mg/min/kg and 77.5 mg/min/kg
[2]
  CO2 Production (VCO2): 92.8 mL/min/kg and 70.8 mL/min/kg and 81.2 mL/min/kg and 81.9 mL/min/kg and 71.5 mL/min/kg and 71.3 mL/min/kg and 73.6 mL/min/kg
  O2 Consumption (VO2): 108.3 ml/min/kg and 99.5 ml/min/kg and 86.9 ml/min/kg and 90.3 ml/min/kg (2×) and 96.4 ml/min/kg and 122.1 ml/min/kg

Source: article PMC8379256, “A xanthene derivative, DS20060511, attenuates glucose intolerance by inducing skeletal muscle-specific GLUT4 translocation in mice” (Communications Biology, 2021)
